Series [1] deals with human recombinant acetylcholinesterase (Homo sapiens, UniProt P22303). Kind of series: biochemical. Particulars: 25° C., 30 minutes preincubation, 0.3 mM acetylthiocholine, Dixon plot.
Series [2] deals with total cholinesterase activity in the brain. The series can be described thus: Total cholinesterase activity in brain homogenate of rats after i.p. injection. It is filed as in vivo, Male Wistar rats. Particulars: for ChE inhibition: brain 3 hours after injection, relative to saline treated rats; for tolerability of the injected dose: i.p., male Wistar rats, dose giving a cholinergic behavioral effect with minimal side effects. The procedure:
Animals were decapitated 3 hours after injection and the brains rapidly removed. The brain tissue was diced into small pieces, placed on ice and immediately homogenized with a Polytron PT1200 (Kinematic AG) in 10 ml ice cold Tris with 0.1% Triton-X and protease inhibitors. The protease inhibitors in the extraction buffer were Antipain (10 μM), Aprotinin (5 TIU/mg protein), Bestatin ([…]), Leupeptin (10 μM) and Pepstatin (1 μM). The final dilution of the homogenate in the final assay mixture was 120-fold.
Total cholinesterase activity was determined by a modification of the colorimetric method of Ellmann, et al. (Biochem. Pharmacol., 7:88-95 (1961)), as described above. Hydrolysis of acetylthiocholine was monitored indirectly by measurement of the formation of the conjugate between thiocholine and DTNB. Optical density at 405 nm was recorded during five (5) minutes employinga a microplate spectrophotometer (Polarstar, BMG Labtech), and plotted against time. The initial rates were calculated from the slope of the linear portion of the graph.
Cholinesterase activity was normalized for protein content of the homogenate. Relative cholinesterase activity was calculated as the ratio of normalized cholinesterase activity in a rat treated with a control compound or a carbamoyl ester over normalized cholinesterase activity in saline treated rats.

For orientation: IC50 means the concentration that inhibits the measured activity by half.

Molecules are shown by their SMILES.

Chain of human recombinant acetylcholinesterase (P22303 32-614): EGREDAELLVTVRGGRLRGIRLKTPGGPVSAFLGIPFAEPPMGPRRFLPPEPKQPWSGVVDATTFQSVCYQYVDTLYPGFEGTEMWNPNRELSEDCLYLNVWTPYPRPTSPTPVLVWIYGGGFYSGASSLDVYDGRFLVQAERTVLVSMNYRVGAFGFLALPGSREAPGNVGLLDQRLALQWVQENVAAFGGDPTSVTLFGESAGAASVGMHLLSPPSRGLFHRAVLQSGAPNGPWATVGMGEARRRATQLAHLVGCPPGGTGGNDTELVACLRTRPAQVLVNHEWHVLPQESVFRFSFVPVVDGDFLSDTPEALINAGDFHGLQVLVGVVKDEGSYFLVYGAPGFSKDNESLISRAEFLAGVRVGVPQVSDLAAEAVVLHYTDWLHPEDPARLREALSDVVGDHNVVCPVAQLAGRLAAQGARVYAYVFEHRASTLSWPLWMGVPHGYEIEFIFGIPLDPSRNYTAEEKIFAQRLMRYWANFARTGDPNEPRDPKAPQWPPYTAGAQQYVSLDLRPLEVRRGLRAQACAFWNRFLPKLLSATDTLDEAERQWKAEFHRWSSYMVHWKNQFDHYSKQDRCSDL

In the case of `Cc1ccccc1O[C@H](CCN(C)C(=O)Oc1cccc([C@H](C)N(C)C)c1)c1ccccc1` [Compound 5], the IC50 in series [1] amounted to 460 nM.

Consider `C[C@H](Cc1ccccc1)N(C)C(=O)Oc1cccc([C@H](C)N(C)C)c1` [Compound 7], for which the ChE inhibition in series [2] (2 mg/kg i.p.) was 38%. In series [2], the “tolerability of the injected dose” value is on record as “well-tolerated”.

In series [2] (8 mg/kg i.p.), `C[C@H](Cc1ccccc1)NC(=O)Oc1cccc([C@H](C)N(C)C)c1` [Compound 9] came in with a ChE inhibition of 41%. In series [2], the “tolerability of the injected dose” value was “well-tolerated”.

Regarding `C[C@H](Cc1ccccc1)N(C)C(=O)Oc1ccc2c(c1)[C@]1(C)CCN(C)[C@@H]1N2C` [Compound 13], the IC50 in series [1] is 5440 nM.

Turning to `C[C@H](Cc1ccccc1)NC(=O)Oc1ccc2c(c1)[C@]1(C)CCN(C)[C@@H]1N2C` [Compound 14], the IC50 in series [1] amounted to 253 nM.

Turning to `C[C@@H](Cc1ccccc1)NC(=O)Oc1cccc([C@H](C)N(C)C)c1` [Compound 20], in series [1], the IC50 was 449 nM.

`CCN(C)C(=O)Oc1cccc([C@H](C)N(C)C)c1` [Rivastigmine, reference compound]: the “tolerability of the injected dose” value in series [2] was “well-tolerated”.

For the origin of these results see patent publication US7795307B2, “Carbamoyl esters that inhibit cholinesterase and release pharmacologically active agents” (priority 2003, dated 2010).
